Assay results published in patent US5684205A, “Use of substituted cyclopentane- di- and -triones” (Bayer Aktiengesellschaft, priority 1994, dated 1997).

The compounds below were run on airway epithelial cell line 4MBr-5 (assay: 36Cl chloride efflux inhibition in airway epithelial cell line 4MBr-5). Conditions: 20 min, 10 μg/ml test compound, 20 minutes efflux, 4MBr-5 cells, expressed as a percentage of the maximal inhibition observed with NPPB.
Assay type: cell-based
Procedure: This compound provides a suitable reference standard against which to judge other chloride channel blockers. […] In the test described below maximal inhibition of chloride efflux is observed at 300 μM, with 20% inhibition evident at the standard test concentration of 10 μg/ml.
The airway epithelial cell line 4MBr-5 was obtained from ATCC and cells were cultured in 35 mm diameter wells on six well plates until cell layers were confluent. Cells were loaded with Na^36 CI solutions at 2.5 μCi/well after washing the cell monolayer free of […] culture medium. Washing and loading were performed in Hepes buffer (pH 7.4) containing 130 mM NaCI, 5.4 mM KCI, 1.8 mM CaCI2, 1.0 mM NaH2 PO4, 0.8 mM MgSO4 and 5.5 mM glucose. After a loading period of 60 minutes the cell layer was rapidly washed with 50 mM Hepes in 241 mM sucrose containing […] MgSO4 and the buffer replaced with 2 ml of ^36 CI^- free buffer containing 10 μg/ml test compound, or vehicle control. (Test compound was also present for the final ten minutes of the loading procedure). After 20 minutes efflux was stopped and the radioactivity remaining in the cells determined by liquid scintillation spectrometry after lysis of the cells. After subtraction of the counts found in cells treated with vehicle the increased counts were compared to the corresponding value observed with NPPB and expressed as a percentage of the maximal inhibition.
`O=C1C(=Cc2ccccc2)C(=O)C(c2ccc(Cl)cc2)=C1O` [19/39] showed an inhibition at 10 µg/mL of 31.1%. Work on `O=C1C(=Cc2ccccc2O)C(=O)C(c2ccccc2)=C1O` [23/43] yielded an inhibition at 10 µg/mL of 36.4%. Compound `COc1ccc(C=C2C(=O)C(O)=C(c3ccccc3)C2=O)cc1` [2/24] has an inhibition at 10 µg/mL of 28.6%. `COc1ccc(C2=C(O)C(=O)C(=Cc3ccc(Cl)c(Cl)c3)C2=O)cc1` [22/42] gave an inhibition at 10 µg/mL of 65%. Work on `CCN(CC)c1ccc(C=C2C(=O)C(O)=C(c3ccccc3)C2=O)cc1` [20/40] yielded an inhibition at 10 µg/mL of 22.7%. Work on `O=C1C(=Cc2ccc(C(F)(F)F)cc2)C(=O)C(c2ccccc2)=C1O` [16/37] yielded an inhibition at 10 µg/mL of 58.2%. Compound `O=C(O)c1cc([N+](=O)[O-])ccc1NCCCc1ccccc1` [NPPB, 2-(3-phenylpropyl)amino-5-nitrobenzoic acid, reference compound] has an inhibition at 10 µg/mL of 20%. With `O=C1C(=Cc2ccc(Cl)cc2Cl)C(=O)C(c2ccccc2)=C1O` [15/36] the inhibition at 10 µg/mL was 37.7%. `O=C1C(=Cc2ccc(OCc3ccccc3)cc2)C(=O)C(c2ccccc2)=C1O` [21/41] was tested, and the inhibition at 10 µg/mL was 50.6%. `O=C1C(=Cc2ccc(-c3ccccc3)cc2)C(=O)C(c2ccccc2)=C1O` [17/38] showed an inhibition at 10 µg/mL of 83.5%. Compound `COc1ccc(C2=C(O)C(=O)C(=Cc3ccccc3)C2=O)cc1` [18/1] has an inhibition at 10 µg/mL of 24%.

Same assay, conditions: 20 min, 4MBr-5 cells, 36Cl efflux, read-out: concentration at which maximal inhibition of chloride efflux is observed
`O=C(O)c1cc([N+](=O)[O-])ccc1NCCCc1ccccc1` [NPPB, 2-(3-phenylpropyl)amino-5-nitrobenzoic acid, reference compound] gave an IC (maximal) of 300 µM.
